Assay results from US11566007B2, “Ras inhibitors” (Revolution Medicines, Inc., priority 2019, dated 2023).
Several values for one entry are separate records, joined by “and”; a condition that tells them apart may be missing. Equal values may be shown once. Read-outs that look alike come from different tables or passages of the source.

Tests used:
NRAS Q61R = NRAS Q61R (Homo sapiens (Human), UniProt P01111+P62937, Q61R); experiment: Ras-Raf (BRAF RBD) disruption / FRET / MOA assay, NRAS Q61R; format: biochemical; details: NRAS Q61R; Ras-Raf disruption/FRET/MOA assay; read-out: IC50* NRAS Q61R FRET data
Chain of NRAS Q61R (P01111 whole entry Q61R, canonical isoform): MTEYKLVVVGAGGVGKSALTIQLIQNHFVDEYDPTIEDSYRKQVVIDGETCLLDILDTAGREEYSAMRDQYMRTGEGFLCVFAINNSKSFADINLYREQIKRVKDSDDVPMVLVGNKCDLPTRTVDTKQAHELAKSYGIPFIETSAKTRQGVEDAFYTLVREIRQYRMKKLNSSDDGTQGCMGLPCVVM
Chain of NRAS Q61R (P62937 whole entry, canonical isoform): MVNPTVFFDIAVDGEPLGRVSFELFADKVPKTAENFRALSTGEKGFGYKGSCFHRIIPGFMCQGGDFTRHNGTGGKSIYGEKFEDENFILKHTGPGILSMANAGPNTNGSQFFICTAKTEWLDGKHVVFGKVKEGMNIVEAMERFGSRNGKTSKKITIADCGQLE
Experimental: (§1) The purpose of this biochemical assay is to measure the ability of test compounds to facilitate ternary complex formation between a nucleotide-loaded Ras isoform and cyclophilin A; the resulting ternary complex disrupts binding to a BRAF^RBD construct, inhibiting Ras signaling through a RAF effector.
(§2) […]. Compound is present in plate wells as a 10-point 3-fold dilution series starting at a final concentration of 30 μM. After incubation at 25° C. for 3 hours, a mixture of Anti-His Eu-W1024 and anti-GST allophycocyanin is then added to assay sample wells at final concentrations of 10 nM and 50 nM, respectively, and the reaction incubated for an additional 1.5 hours. […] Compounds that facilitate disruption of a Ras:RAF complex are identified as those eliciting a decrease in the TR-FRET ratio relative to DMSO control wells.
(§3) Note—The following protocol describes a procedure for monitoring disruption of K-Ras G12C (GMP-PNP) binding to BRAF^RBD by a compound of the invention. This protocol may also be executed substituting other Ras proteins or nucleotides.
(§4) The purpose of this biochemical assay was to measure the ability of test compounds to facilitate ternary complex formation between a nucleotide-loaded K-Ras isoform and Cyclophilin A; the resulting ternary complex disrupts binding to a BRAF^RBD construct, inhibiting K-Ras signaling through a RAF effector. Data is reported as IC50 values.
as §2, with “Compound was” for “Compound is”, “allophycocyanin was” for “allophycocyanin is”, “a K-Ras:RAF” for “a Ras:RAF”, “complex were” for “complex are”

K-Ras G12C = K-Ras G12C (Homo sapiens (Human), UniProt P01116+P62937, G12C); experiment: Ras-Raf (BRAF RBD) disruption / FRET / MOA assay, KRAS G12C; format: biochemical; details: KRAS G12C; Ras-Raf disruption/FRET/MOA assay; read-out: IC50* KRAS G12C FRET data
Chain of K-Ras G12C (P01116-2 other isoform, or with tags, fused parts or gaps G12C): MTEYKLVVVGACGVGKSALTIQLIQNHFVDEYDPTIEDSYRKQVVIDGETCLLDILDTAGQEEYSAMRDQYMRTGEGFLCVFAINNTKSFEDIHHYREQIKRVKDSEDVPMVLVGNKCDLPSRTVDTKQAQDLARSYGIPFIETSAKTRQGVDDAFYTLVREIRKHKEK
Chain of K-Ras G12C (P62937 whole entry): as the sequence (P62937 whole entry, canonical isoform) above
Outline: (§5)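 A 10-point, 3-fold dilution series topping at 30 μM final was incubated 3 h at 25° C with the Ras/cyclophilin A/BRAF RBD mixture.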

KRAS G12D = KRAS G12D (Homo sapiens (Human), UniProt P01116+P62937, G12D); experiment: Ras-Raf (BRAF RBD) disruption / FRET / MOA assay, KRAS G12D; format: biochemical; details: Ras-Raf disruption/FRET/MOA assay; class symbols; read-out: KRAS G12D FRET data IC50
Chain of KRAS G12D (P01116-2 other isoform, or with tags, fused parts or gaps G12D): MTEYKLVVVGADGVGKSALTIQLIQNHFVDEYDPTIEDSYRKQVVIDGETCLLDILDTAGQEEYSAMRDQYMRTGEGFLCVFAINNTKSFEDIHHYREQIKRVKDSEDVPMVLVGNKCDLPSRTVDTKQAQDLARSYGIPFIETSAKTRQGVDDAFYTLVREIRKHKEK
Chain of KRAS G12D (P62937 whole entry): as the sequence (P62937 whole entry, canonical isoform) above
Outline: as §5

KRAS G12S = KRAS G12S (Homo sapiens (Human), UniProt P01116+P62937, G12S); experiment: Ras-Raf (BRAF RBD) disruption / FRET / MOA assay, KRAS G12S; format: biochemical; details: Ras-Raf disruption/FRET/MOA assay; class symbols; read-out: KRAS G12S FRET data IC50
Chain of KRAS G12S (P01116-2 other isoform, or with tags, fused parts or gaps G12S): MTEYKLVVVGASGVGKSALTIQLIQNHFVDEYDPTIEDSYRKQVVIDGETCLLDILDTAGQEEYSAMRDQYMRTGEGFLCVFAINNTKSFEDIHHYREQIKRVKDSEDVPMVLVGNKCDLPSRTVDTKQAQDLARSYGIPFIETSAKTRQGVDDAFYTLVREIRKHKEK
Chain of KRAS G12S (P62937 whole entry): as the sequence (P62937 whole entry, canonical isoform) above
Outline: as §5

KRAS G12V = KRAS G12V (Homo sapiens (Human), UniProt P01116+P62937, G12V); experiment: Ras-Raf (BRAF RBD) disruption / FRET / MOA assay, KRAS G12V; format: biochemical; details: read-out: IC50* KRAS G12V FRET data
Chain of KRAS G12V (P01116-2 other isoform, or with tags, fused parts or gaps G12V): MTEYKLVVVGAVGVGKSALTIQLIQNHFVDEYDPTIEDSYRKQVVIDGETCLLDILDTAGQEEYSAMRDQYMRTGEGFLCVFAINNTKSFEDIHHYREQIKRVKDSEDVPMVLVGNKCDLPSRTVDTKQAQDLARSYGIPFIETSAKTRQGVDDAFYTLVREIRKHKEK
Chain of KRAS G12V (P62937 whole entry): as the sequence (P62937 whole entry, canonical isoform) above
Outline: as §5

KRAS G13D = KRAS G13D (Homo sapiens (Human), UniProt P01116+P62937, G13D); experiment: Ras-Raf (BRAF RBD) disruption / FRET / MOA assay, KRAS G13D; format: biochemical; details: read-out: IC50* KRAS G13D FRET data
Chain of KRAS G13D (P01116-2 other isoform, or with tags, fused parts or gaps G13D): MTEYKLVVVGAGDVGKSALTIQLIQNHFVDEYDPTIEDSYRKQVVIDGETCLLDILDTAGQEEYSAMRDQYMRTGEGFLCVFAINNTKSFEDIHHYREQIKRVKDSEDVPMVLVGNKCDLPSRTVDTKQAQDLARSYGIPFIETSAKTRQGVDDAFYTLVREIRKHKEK
Chain of KRAS G13D (P62937 whole entry): as the sequence (P62937 whole entry, canonical isoform) above
Outline: as §5

K-Ras G13C = K-Ras G13C (Homo sapiens (Human), UniProt P01116+P62937, G13C); experiment: Ras-Raf (BRAF RBD) disruption / FRET / MOA assay, KRAS G13C; format: biochemical; details: KRAS G13C; Ras-Raf disruption/FRET/MOA assay; read-out: IC50* KRAS G13C FRET data
Chain of K-Ras G13C (P01116-2 other isoform, or with tags, fused parts or gaps G13C): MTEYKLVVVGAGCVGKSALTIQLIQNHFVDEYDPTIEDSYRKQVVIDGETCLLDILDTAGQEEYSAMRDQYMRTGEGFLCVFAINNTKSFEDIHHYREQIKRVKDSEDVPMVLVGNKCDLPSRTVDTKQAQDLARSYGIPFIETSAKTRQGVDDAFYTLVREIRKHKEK
Chain of K-Ras G13C (P62937 whole entry): as the sequence (P62937 whole entry, canonical isoform) above
Outline: as §5

NRAS Q61K = NRAS Q61K (Homo sapiens (Human), UniProt P01111+P62937, Q61K); experiment: Ras-Raf (BRAF RBD) disruption / FRET / MOA assay, NRAS Q61K; format: biochemical; details: NRAS Q61K; Ras-Raf disruption/FRET/MOA assay; read-out: IC50* NRAS Q61K FRET data
Chain of NRAS Q61K (P01111 whole entry Q61K): as the sequence (P01111 whole entry Q61R, canonical isoform) above, with R61K counted along it
Chain of NRAS Q61K (P62937 whole entry): as the sequence (P62937 whole entry, canonical isoform) above
Experimental: as §1, §2, §3, §4
as §2, with “Compound was” for “Compound is”, “allophycocyanin was” for “allophycocyanin is”, “a K-Ras:RAF” for “a Ras:RAF”, “complex were” for “complex are”

KRAS WT = KRAS WT (Homo sapiens (Human), UniProt P01116+P62937); experiment: Ras-Raf (BRAF RBD) disruption / FRET / MOA assay, KRAS WT; format: biochemical; details: read-out: IC50* KRAS WT FRET data
Chain of KRAS WT (P01116-2 other isoform, or with tags, fused parts or gaps): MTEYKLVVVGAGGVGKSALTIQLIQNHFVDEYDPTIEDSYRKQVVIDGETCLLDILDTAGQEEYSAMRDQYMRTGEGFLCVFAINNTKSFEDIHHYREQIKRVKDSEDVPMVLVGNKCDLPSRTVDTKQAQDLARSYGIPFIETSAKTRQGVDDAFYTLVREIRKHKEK
Chain of KRAS WT (P62937 whole entry): as the sequence (P62937 whole entry, canonical isoform) above
Outline: as §5

[1] = system: NCI-H358 cells (K-Ras G12C); experiment: Potency assay: pERK in NCI-H358 cells; format: cell-based, human; details: Homo sapiens
Outline: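 pERK decrease read by AlphaLISA SureFire p-ERK1/2 or In-Cell Western after 4 h compound exposure at 37 °C, 5% CO2.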

NRAS WT = NRAS WT (Homo sapiens (Human), UniProt P01111+P62937); experiment: Ras-Raf (BRAF RBD) disruption / FRET / MOA assay, NRAS WT; format: biochemical; details: read-out: IC50* NRAS WT FRET data
Chain of NRAS WT (P01111 whole entry): as the sequence (P01111 whole entry Q61R, canonical isoform) above, with R61Q counted along it
Chain of NRAS WT (P62937 whole entry): as the sequence (P62937 whole entry, canonical isoform) above
Experimental: as §1, §2, §3, §4
as §2, with “Compound was” for “Compound is”, “allophycocyanin was” for “allophycocyanin is”, “a K-Ras:RAF” for “a Ras:RAF”, “complex were” for “complex are”

NRAS G12C = NRAS G12C (Homo sapiens (Human), UniProt P01111+P62937, G12C); experiment: Ras-Raf (BRAF RBD) disruption / FRET / MOA assay, NRAS G12C; format: biochemical; details: read-out: IC50* NRAS G12C FRET data
Chain of NRAS G12C (P01111 whole entry G12C): as the sequence (P01111 whole entry Q61R, canonical isoform) above, with G12C, R61Q counted along it
Chain of NRAS G12C (P62937 whole entry): as the sequence (P62937 whole entry, canonical isoform) above
Outline: as §5

KRAS Q61H = KRAS Q61H (Homo sapiens (Human), UniProt P01116+P62937, Q61H); experiment: Ras-Raf (BRAF RBD) disruption / FRET / MOA assay, KRAS Q61H; format: biochemical; details: Ras-Raf disruption/FRET/MOA assay; class symbols; read-out: KRAS Q61H FRET data IC50
Chain of KRAS Q61H (P01116-2 other isoform, or with tags, fused parts or gaps Q61H): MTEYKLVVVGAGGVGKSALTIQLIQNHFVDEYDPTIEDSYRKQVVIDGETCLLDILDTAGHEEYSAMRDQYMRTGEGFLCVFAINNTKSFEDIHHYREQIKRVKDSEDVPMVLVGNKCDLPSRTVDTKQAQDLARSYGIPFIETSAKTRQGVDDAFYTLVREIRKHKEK
Chain of KRAS Q61H (P62937 whole entry): as the sequence (P62937 whole entry, canonical isoform) above
Outline: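 Compounds (30 μM top final, 10-point 3-fold dilutions) incubated 3 h at 25° C with nucleotide-loaded Ras, cyclophilin A and BRAF RBD. Detection with 10 nM anti-His Eu-W1024 and 50 nM anti-GST allophycocyanin over another 1.5 h. Lowered TR-FRET ratio relative to DMSO wells gives IC50.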

[2] = NCI-H358, H358 KRAS G12C, read-out: pERK EC50

CCn1c(-c2cccnc2[C@H](C)OC)c2c3cc(ccc31)-c1cccc(c1)C[C@H](NC(=O)[C@H](C(C)C)N1CC[C@]3(CCN(C(=O)C#C[C@H]4COCCN4C)C3)C1=O)C(=O)N1CCC[C@H](N1)C(=O)OCC(C)(C)C2 (atropisomer, axis not shown) [Example A592]
IC50 (NRAS Q61R): > 10 µM | IC50 (K-Ras G12C): 0.01 to 0.1 µM | IC50 (KRAS G12D): > 10 µM | IC50 (KRAS G12S): 1 to 10 µM | IC50 (KRAS G12V): 1 to 10 µM | IC50 (KRAS G13D): > 10 µM | IC50 (K-Ras G13C): 1 to 10 µM | IC50 (NRAS Q61K): > 10 µM | IC50 (KRAS WT): > 10 µM | EC50 ([1]; NCI-H358, read-out: pERK EC50): < 5 µM | IC50 (NRAS WT): > 10 µM | IC50 (NRAS G12C): 0.01 to 0.1 µM | IC50 (KRAS Q61H): 1 to 10 µM

C=CC(=O)N1CCO[C@H]2CCN(C(=O)N(C)[C@H](C(=O)N[C@H]3Cc4nc(cs4)-c4ccc5c(c4)c(c(-c4cccnc4[C@H](C)OC)n5CC)CC(C)(C)COC(=O)[C@@H]4CCCN(N4)C3=O)C(C)C)C[C@@H]21 (atropisomer, axis not shown) [Example A609]
IC50 (NRAS Q61R): 0.01 to 0.1 µM | IC50 (K-Ras G12C): < 0.01 µM | IC50 (KRAS G12D): 0.1 to 1 µM | IC50 (KRAS G12S): 0.01 to 0.1 µM | IC50 (KRAS G12V): 0.01 to 0.1 µM | IC50 (KRAS G13D): 0.1 to 1 µM | IC50 (K-Ras G13C): 0.01 to 0.1 µM | IC50 (NRAS Q61K): 0.01 to 0.1 µM | IC50 (KRAS WT): 0.01 to 0.1 µM | EC50 [1, 2]: < 5 µM | IC50 (NRAS WT): 0.01 to 0.1 µM | IC50 (NRAS G12C): < 0.01 µM | IC50 (KRAS Q61H): 0.01 to 0.1 µM

CCn1c(-c2cccnc2[C@H](C)OC)c2c3cc(ccc31)N1CCO[C@@H](C[C@H](NC(=O)[C@H](C(C)C)N3CC[C@@]4(CCN(C(=O)C#CC(C)(C)N(C)C)C4)C3=O)C(=O)N3CCC[C@H](N3)C(=O)OCC(C)(C)C2)C1 (atropisomer, axis not shown) [Example A614]
IC50 (NRAS Q61R): > 10 µM | IC50 (K-Ras G12C): 0.01 to 0.1 µM | IC50 (KRAS G12D): > 10 µM | IC50 (KRAS G12S): > 10 µM | IC50 (KRAS G12V): > 10 µM | IC50 (KRAS G13D): > 10 µM | IC50 (K-Ras G13C): 1 to 10 µM | IC50 (NRAS Q61K): > 10 µM | IC50 (KRAS WT): > 10 µM | EC50 [1, 2]: < 5 µM | IC50 (NRAS WT): > 10 µM | IC50 (NRAS G12C): 0.01 to 0.1 µM | IC50 (KRAS Q61H): > 10 µM

CCn1c(-c2cccnc2[C@H](C)OC)c2c3cc(ccc31)-c1cccc(c1)C[C@H](NC(=O)[C@H](C(C)C)N(C)C(=O)C1(F)CCN(C(=O)C#CC(C)(C)N(C)C)CC1)C(=O)N1CCC[C@H](N1)C(=O)OCC(C)(C)C2 (atropisomer, axis not shown) [Example A699]
IC50 (NRAS Q61R): 0.1 to 1 µM | IC50 (K-Ras G12C): < 0.01 µM | IC50 (KRAS G12D): 1 to 10 µM | IC50 (KRAS G12S): 0.1 to 1 µM | IC50 (KRAS G12V): 0.1 to 1 µM | IC50 (KRAS G13D): 0.1 to 1 µM | IC50 (K-Ras G13C): 0.01 to 0.1 µM | IC50 (NRAS Q61K): 0.1 to 1 µM | IC50 (KRAS WT): 0.1 to 1 µM | EC50 [1, 2]: < 5 µM | IC50 (NRAS WT): 0.1 to 1 µM | IC50 (NRAS G12C): < 0.01 µM | IC50 (KRAS Q61H): 0.1 to 1 µM

C=CC(=O)N1CC[C@H](C(=O)N(C)[C@H](C(=O)N[C@H]2Cc3cccc(c3)-c3ccc4c(c3)c(c(-c3cc(N5CCN(C)CC5)cnc3[C@H](C)OC)n4CC)CC(C)(C)COC(=O)[C@@H]3CCCN(N3)C2=O)C(C)C)C1 (single isomer, unassigned) [Example A328]
IC50 (NRAS Q61R): 1 to 10 µM | IC50 (K-Ras G12C): 0.01 to 0.1 µM and 1 to 10 µM | IC50 (KRAS G12D): 1 to 10 µM and > 10 µM | IC50 (KRAS G12S): 0.1 to 1 µM and > 10 µM | IC50 (KRAS G12V): 1 to 10 µM and > 10 µM | IC50 (KRAS G13D): 1 to 10 µM and > 10 µM | IC50 (K-Ras G13C): 0.1 to 1 µM and > 10 µM | IC50 (NRAS Q61K): 1 to 10 µM | IC50 (KRAS WT): 1 to 10 µM and > 10 µM | EC50 [1, 2]: < 5 µM | IC50 (NRAS WT): 1 to 10 µM | IC50 (NRAS G12C): 0.01 to 0.1 µM and 1 to 10 µM | IC50 (KRAS Q61H): 0.1 to 1 µM
